Experiments:
Gnas^-/- SMP cells = assay: Osteoblast differentiation (ALP) of Gnas^-/- SMP cells in osteogenic medium; assay type: cell-based, mouse
Description: (§1) For ALP staining, cells were fixed in 4% PFA for 20 minutes, washed with PBS for three times, then stained with 1-Step NBT/BCIP (Thermo, 34042) for 30 minutes and washed by PBS. There were three biological replicates for each group. ALP staining was quantified as previously described. Cells were scraped into a radioimmunoprecipitation assay (RIPA) buffer (containing 50 mM Tris-HCl pH 7.5, 150 mM NaCl, 5% Glycerol, 1 mM EDTA, 1% NP-40, 0.1% SDS and 0.25% Na-deoxycholate) and centrifuged. The enzymatic alkaline phosphatase activity in the supernatant of cell lysate was assayed by measuring the chromogenic p-nitrophenol formed from the enzymatic hydrolysis of p-nitrophenyl phosphate (the substrate) by light absorbance at 405 nm. The alkaline phosphatase activity was normalized to total protein, as measured by BCA protein assay. All experiments were performed in triplicates and means and standard deviations were calculated.
Subcutaneous mesenchymal progenitor (SMP) cells are potential osteoprogenitor cells within the subcutaneous connective tissue which can be induced to become osteoblast cells and adipocytes. Subcutaneous skin tissue containing adipose deposits was removed under sterile conditions and washed in PBS supplemented with 100 U/mL penicillin and 100 μg/mL streptomycin on ice. The tissue was then minced, and digested with 1 mg/ml collagenase type I and 0.5% Trypsin in 0.1% BSA for 70 minutes at 37° C. The digested tissue was centrifuged at 500 g for 10 min and the pellet was carefully collected after aspirating off the floating fat depots. After a second centrifugation at 500 g for 10 min, the cellular pellet was filtered through a 100 μm mesh filter to remove debris.
(§2) Cre recombinase adenovirus from Berk (˜10^12 pfu/ml) were diluted 1:50 in 100 μl PBS solution and injected into the subcutaneous region of the limbs of 4 weeks old mice. Six weeks, 3 months or 8 months after injection, the limbs were harvested from euthanized mice and fixed in 4% PFA overnight. Ectopic bone formation was analyzed by μCT and skeletal preparation. The Cre recombinase or GFP adenovirus (˜10^10 pfu/ml) was diluted 1:2000 to infect cells in vitro. Four hours later, fresh medium was added and 24 hours later, the medium was changed.

[1] = system: Gnas^f/f mice after Ad-Cre injection (POH mouse model); assay: POH mouse model: Gnas^f/f mice with subcutaneous Ad-Cre injection, ectopic and endogenous bone by μCT
[2] = system: WT mice with Achilles tendon puncture (ATP); assay: Achilles tendon puncture (ATP) injury-induced HO mouse model, μCT; assay type: in vivo; settings: for HO formation (ectopic bone volume): from the day of ATP, vs vehicle
Text: For ATP mouse model, 4-week-old male mice were anesthetized. A 27-gauge needle was punctured into the Achilles tendon body from the lateral aspect percutaneously and this process was repeated six times at different parts of Achilles tendon body for each mouse. For sham operation, the needle was punctured through the skin without touching the Achilles tendons.
(§3) Mice were fixed overnight in 4% PFA and transferred to 70% ethanol, then analyzed by high-resolution μCT using a deskop μCT (Scanco Medical) according to recommended guidelines. The scanner was set at a voltage of 55 kV and a resolution of 12.3 μm per pixel. The images were reconstructed, analyzed for HO bone volume and endogenous bone mass. Briefly cortical bone parameters and cancellous bone microarchitecture from tibia were determined using a 7-μm isotropic voxel size. For ectopic bone, bone volume was measured. For cancellous bone, bone volume fraction (bone volume per tissue volume [BV/TV]) (percentage), trabecular number (Tb.N) (per millimeter), trabecular thickness (Tb.Th) (millimeter), trabecular separation (Tb.Sp) (millimeter) was analyzed. For cortical bone, cortical area fraction (Ct. BV/TV) (percentage), cortical bone density (Ct. BMD) (mgHA/cm3) were evaluated.

[3] = system: ACVR1^R206H; ScxCre mice (FOP model); assay: FOP mouse model ScxCre; ACVR1^R206H, HO volume by μCT; assay type: in vivo; settings: VP 4 mg/kg/d IP, 5 days per week, starting at 6 weeks of age for 8 weeks
Description: The ACVR1^FlExR206H mice conditionally express ACVR1^R206H/+ knock-in alleles, were kindly provided by Dr. Aris Economides (Regeneron Pharmaceuticals, Inc.), mated with ScxCre mice, to yield ScxCre; ACVR1^FlEx206H/+ mice, which represent a FOP mouse model that develops spontaneous HO of tendons, ligaments, and joints. These mice were treated with Verteporfin (VP) (4 mg/kg/d intraperitoneal (IP) injection, 5 days per week) or an equal volume of PBS for 8 weeks, starting at 6 weeks of age. […]
as §3, with “The scanner was set at a voltage of 55 kV and a resolution of 12.3 μm per pixel.” left out

ACVR1^Q207D/+ SMPs = ACVR1^Q207D/+ SMPs with Ad-Cre infection: ALP activity and QRT-PCR; assay type: cell-based, mouse; settings: VP 200 ng/ml for 7 days
Description: as §1
The skin was removed from the hindlimb covering the tibia and the subcutaneous tissue area (5 mm (1)×5 mm (w)×4 mm (h)) where the Ad-Cre were locally injected was isolated. Subcutaneous connective tissue and some muscle cells surrounding the ectopic bone would have been included. Total RNA was isolated first with Trizol (Invitrogen). […] PCR product accumulation was detected using Sybr green (Invitrogen; Platinum SYBR Green qPCR SuperMix-UDG). […]

Shh protein = Shh protein levels by Western blotting in Gnas^f/f SMPs after Ad-Cre infection; assay type: cell-based, mouse; settings: 200 ng/ml for 7 days after Ad-Cre infection (FIG. 4B)
Description: as §2
Tissue or cell lysates were prepared using a lysis buffer [20 mM Tris (pH 7.4), 150 mM NaCl, 1% Tri-ton X-100, 1 mM EDTA, 1 mM EGTA, 2.5 mM sodium pyrophosphate, 1 mM β-glycerophosphate, 1 mM sodium orthovanadate] or RIPA buffer (Santa Cruz Biotechnology), respectively, containing protease inhibitor mixture (Roche). Total cell lysates were analyzed by Western blotting according to standard procedures.

[4] = Gnas^-/- SMP cells cultured with the inhibitors for 7 days (FIG. 11G)

| Compound | osteoblast differentiation (ALP) (Gnas^-/- SMP cells; [4]) | HO (ectopic bone volume, μCT) ([1]; CT7001 10 mg/kg gavage every other day after Ad-Cre injection) | HO (ectopic bone volume, μCT) ([1]; THZ1 10 mg/kg IP injection 5 days a week after Ad-Cre injection) | HO formation (ectopic bone volume) ([2]; THZ1 (1 mM) applied on the skin of the trauma area) | tendon, ligament, and intra-articular HO (HO volume) [3] | osteoblast differentiation (ALP) (Gnas^-/- SMP cells; 200 ng/ml for 7 days after Ad-Cre infection (FIG. 4A)) | osteoblast differentiation (ALP) (ACVR1^Q207D/+ SMPs) | expression of Yap and Hh target genes, Shh and Ihh (ACVR1^Q207D/+ SMPs; QRT-PCR) | Shh protein levels (Shh protein) | endogenous bone mass ([1]; 3 months of non-stop VP treatment (IP 2.5 mg/kg)) | endogenous tibia bone mass ([1]; 6 weeks after VP IP injection (2.5 mg/kg, 5 days per week), treated vs untreated) | HO after VP withdrawal ([1]; VP IP 2.5 mg/kg for 6 weeks from Ad-Cre injection, then no treatment, harvested 3 months after Ad-Cre) | already formed HO (ectopic bone volume) ([1]; VP IP 2.5 mg/kg started 6 weeks after Ad-Cre injection, 5 times per week for 6 weeks, vs untreated) | HO (ectopic bone volume, μCT) ([1]; VP IP injection (2.5 mg/kg) 5 days a week for 6 weeks, immediately after Ad-Cre injection) | HO (ectopic bone volume, μCT) ([1]; VP topically applied (0.2 mg/ml; 200 μg/ml) 5 days per week for 6 weeks, immediately after Ad-Cre injection) | endogenous bone mass (tibia bones) ([2]; VP IP 2.5 mg/kg 5 days per week, VP treated vs control) | HO formation (ectopic bone volume) ([2]; VP higher dose 200 μg/ml applied on the skin of the trauma area) | HO formation (ectopic bone volume) ([2]; VP low dose 20 μg/ml applied on the skin of the trauma area) |
| --- | --- | --- | --- | --- | --- | --- | --- | --- | --- | --- | --- | --- | --- | --- | --- | --- | --- | --- |
| CC(C)c1cnn2c(NCc3ccccc3)cc(NC[C@H]3CCNC[C@@H]3O)nc12 [CT7001] | reduced | reduced HO | – | – | – | – | – | – | – | – | – | – | – | – | – | – | – | – |
| CN(C)C/C=C/C(=O)Nc1ccc(C(=O)Nc2cccc(Nc3ncc(Cl)c(-c4c[nH]c5ccccc45)n3)c2)cc1 [THZ1] | reduced | – | reduced HO | completely blocked | – | – | – | – | – | – | – | – | – | – | – | – | – | – |
| Verteporfin [VP] | reduced | – | – | – | significantly reduced | decreased | reduced | reduced | decreased | not reduced | no significant change | significantly reduced | obviously reduced | more effective HO blockage | HO reduction | no significant difference | completely blocked | reduced |
